Activity calls are given as the source filed them. No cut-off for these calls is given here.
What was measured:
[1] = Antiproliferative activity against human MGC803 cells by MTT assay; format: functional, cell-based; conditions: MGC-803
[2] = test system: A549; assay: Antiproliferative activity against human A549 cells by MTT assay; format: functional, cell-based
[3] = test system: A549; assay: Selectivity index, ratio of IC50 for human BEAS2B cells to IC50 for human A549 cells; format: functional
[4] = test system: A549; assay: Induction of apoptosis in human A549 cells assessed as viable cells at 5 uM after 6 hrs by Annexin-V-FITC/Propidium iodide staining based flow cytometric analysis (reference value: 95.48 +/- 2.03%); format: functional; conditions: A549, 6 h, read-out: Activity
[5] = test system: A549; assay: Induction of apoptosis in human A549 cells assessed as early apoptotic cells at 5 uM after 6 hrs by Annexin-V-FITC/Propidium iodide staining based flow cytometric analysis (reference value: 3.83 +/- 0.49%); format: functional
[6] = test system: A549; assay: Induction of apoptosis in human A549 cells assessed as necrotic cells at 5 uM after 6 hrs by Annexin-V-FITC/Propidium iodide staining based flow cytometric analysis (reference value: 0.28 +/- 0.09%); format: functional
[7] = test system: A549; assay: Induction of apoptosis in human A549 cells assessed as viable cells at 10 uM after 6 hrs by Annexin-V-FITC/Propidium iodide staining based flow cytometric analysis (reference value: 95.48 +/- 2.03%); format: functional; conditions: A549, 6 h, read-out: Activity
[8] = test system: A549; assay: Induction of apoptosis in human A549 cells assessed as late apoptotic cells at 10 uM after 6 hrs by Annexin-V-FITC/Propidium iodide staining based flow cytometric analysis (reference value: 0.41 +/- 0.19%); format: functional
[9] = test system: A549; assay: Induction of apoptosis in human A549 cells assessed as viable cells at 10 uM after 48 hrs by Annexin-V-FITC/Propidium iodide staining based flow cytometric analysis (reference value: 92.46 +/- 4.23%); format: functional; conditions: A549, 48 h, read-out: Activity
[10] = test system: A549; assay: Induction of apoptosis in human A549 cells assessed as early apoptotic cells at 5 uM after 48 hrs by Annexin-V/Propidium iodide dual staining based flow cytometric analysis (reference value: 3.53 +/- 0.89%); format: functional
[11] = test system: A549; assay: Induction of apoptosis in human A549 cells assessed as necrotic cells at 5 uM after 48 hrs by Annexin-V/Propidium iodide dual staining based flow cytometric analysis (reference value: 2.57 +/- 0.39%); format: functional
[12] = test system: A549; assay: Cell cycle arrest in human A549 cells assessed as accumulation at S phase at 10 uM by propidium iodide staining based flow cytometric analysis (reference value: 23.41 +/- 2.19%); format: functional
[13] = test system: A549; assay: Cell cycle arrest in human A549 cells assessed as accumulation at G0/G1 phase at 20 uM by propidium iodide staining based flow cytometric analysis (reference value: 63.82 +/- 2.66%); format: functional
[14] = test system: A549; assay: Induction of apoptosis in human A549 cells assessed as early apoptotic cells at 10 uM after 48 hrs by Annexin-V/Propidium iodide dual staining based flow cytometric analysis (reference value: 3.53 +/- 0.89%); format: functional
[15] = test system: A549; assay: Induction of apoptosis in human A549 cells assessed as late apoptotic cells at 10 uM after 48 hrs by Annexin-V/Propidium iodide dual staining based flow cytometric analysis (reference value: 1.44 +/- 0.43%); format: functional
[16] = test system: A549; assay: Induction of apoptosis in human A549 cells assessed as necrotic cells at 10 uM after 48 hrs by Annexin-V/Propidium iodide dual staining based flow cytometric analysis (reference value: 2.57 +/- 0.39%); format: functional
[17] = test system: A549; assay: Cell cycle arrest in human A549 cells assessed as accumulation at G0/G1 phase at 5 uM by propidium iodide staining based flow cytometric analysis (reference value: 63.82 +/- 2.66%); format: functional
[18] = test system: A549; assay: Induction of apoptosis in human A549 cells assessed as early apoptotic cells at 20 uM after 48 hrs by Annexin-V/Propidium iodide dual staining based flow cytometric analysis (reference value: 3.53 +/- 0.89%); format: functional
[19] = test system: A549; assay: Induction of apoptosis in human A549 cells assessed as late apoptotic cells at 20 uM after 48 hrs by Annexin-V/Propidium iodide dual staining based flow cytometric analysis (reference value: 1.44 +/- 0.43%); format: functional
[20] = test system: A549; assay: Cell cycle arrest in human A549 cells assessed as accumulation at G0/G1 phase at 10 uM by propidium iodide staining based flow cytometric analysis (reference value: 63.82 +/- 2.66%); format: functional
[21] = test system: A549; assay: Induction of apoptosis in human A549 cells assessed as increase in ROS production at 20 uM after 6 hrs by DCF staining based luminescence spectrometric analysis relative to control; format: functional
[22] = test system: A549; assay: Induction of cell cycle arrest in human A549 cells assessed as downregulation of p-Rb(Ser807/811) expression after 48 hrs by Western blot analysis; format: functional, cell-based
[23] = test system: A549; assay: Induction of apoptosis in human A549 cells assessed as downregulation of Bcl-2 expression after 48 hrs by Western blot analysis; format: functional, cell-based
[24] = test system: A549; assay: Induction of apoptosis in human A549 cells assessed as upregulation of caspase-8 expression after 48 hrs by Western blot analysis; format: functional, cell-based
[25] = biological target: Serine/threonine-protein kinase B-raf (Homo sapiens) (UniProt P15056); assay: Inhibition of B-Raf in human A549 cells at 5 to 20 uM after 48 hrs by Western blot analysis; format: cell-based
[26] = biological target: RAF proto-oncogene serine/threonine-protein kinase (Homo sapiens) (UniProt P04049); assay: Inhibition of c-Raf in human A549 cells assessed as downregulation of phosphorylated ERK1/2 expression after 48 hrs by Western blot analysis; format: cell-based
[27] = test system: A549; assay: Induction of apoptosis in human A549 cells assessed as viable cells at 5 uM after 48 hrs by Annexin-V-FITC/Propidium iodide staining based flow cytometric analysis (reference value: 92.46 +/- 4.23%); format: functional; conditions: A549, 48 h, read-out: Activity
[28] = test system: A549; assay: Cell cycle arrest in human A549 cells assessed as accumulation at S phase at 5 uM by propidium iodide staining based flow cytometric analysis (reference value: 23.41 +/- 2.19%); format: functional
[29] = test system: A549; assay: Cell cycle arrest in human A549 cells assessed as accumulation at S phase at 20 uM by propidium iodide staining based flow cytometric analysis (reference value: 23.41 +/- 2.19%); format: functional
[30] = test system: A549; assay: Cell cycle arrest in human A549 cells assessed as accumulation at G2/M phase at 10 uM by propidium iodide staining based flow cytometric analysis (reference value: 12.77 +/- 1.55%); format: functional
[31] = test system: A549; assay: Cell cycle arrest in human A549 cells assessed as accumulation at G2/M phase at 5 uM by propidium iodide staining based flow cytometric analysis (reference value: 12.77 +/- 1.55%); format: functional
[32] = test system: A549; assay: Cell cycle arrest in human A549 cells assessed as accumulation at G2/M phase at 20 uM by propidium iodide staining based flow cytometric analysis (reference value: 12.77 +/- 1.55%); format: functional
[33] = test system: A549; assay: Disruption of mitochondrial membrane potential in human A549 cells at 10 uM by JC-1 staining based laser scanning confocal microscopic analysis; format: functional, cell-based
[34] = test system: A549; assay: Disruption of mitochondrial membrane potential in human A549 cells assessed as ratio of green to red fluorescence intensity at 20 uM after 24 hrs by JC-1 staining based flow cytometric analysis; format: functional
[35] = test system: A549; assay: Effect on total Rb level in human A549 cells after 48 hrs by Western blot analysis; format: ADME, cell-based; conditions: a549, 48 h

Chain of Serine/threonine-protein kinase B-raf (Homo sapiens) (P15056 whole entry): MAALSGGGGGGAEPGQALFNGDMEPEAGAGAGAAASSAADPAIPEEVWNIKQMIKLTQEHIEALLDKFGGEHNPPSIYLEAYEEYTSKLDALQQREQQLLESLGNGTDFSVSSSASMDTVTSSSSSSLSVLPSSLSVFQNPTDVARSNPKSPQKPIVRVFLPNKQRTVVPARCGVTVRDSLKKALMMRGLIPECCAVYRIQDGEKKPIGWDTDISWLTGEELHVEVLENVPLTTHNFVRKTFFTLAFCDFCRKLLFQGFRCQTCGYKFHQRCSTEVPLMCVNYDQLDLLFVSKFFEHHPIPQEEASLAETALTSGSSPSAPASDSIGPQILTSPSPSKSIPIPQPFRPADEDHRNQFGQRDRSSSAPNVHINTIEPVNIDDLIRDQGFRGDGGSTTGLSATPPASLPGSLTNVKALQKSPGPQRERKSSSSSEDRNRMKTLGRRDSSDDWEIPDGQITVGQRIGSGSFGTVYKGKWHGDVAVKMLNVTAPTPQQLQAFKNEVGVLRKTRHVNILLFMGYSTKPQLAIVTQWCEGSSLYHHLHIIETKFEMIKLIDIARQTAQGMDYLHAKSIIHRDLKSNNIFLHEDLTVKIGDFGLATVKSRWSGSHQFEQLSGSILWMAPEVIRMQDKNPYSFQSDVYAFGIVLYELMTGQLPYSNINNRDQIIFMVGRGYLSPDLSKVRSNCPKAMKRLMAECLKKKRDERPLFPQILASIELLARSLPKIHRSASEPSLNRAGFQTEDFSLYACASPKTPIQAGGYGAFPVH
Chain of RAF proto-oncogene serine/threonine-protein kinase (Homo sapiens) (P04049 whole entry): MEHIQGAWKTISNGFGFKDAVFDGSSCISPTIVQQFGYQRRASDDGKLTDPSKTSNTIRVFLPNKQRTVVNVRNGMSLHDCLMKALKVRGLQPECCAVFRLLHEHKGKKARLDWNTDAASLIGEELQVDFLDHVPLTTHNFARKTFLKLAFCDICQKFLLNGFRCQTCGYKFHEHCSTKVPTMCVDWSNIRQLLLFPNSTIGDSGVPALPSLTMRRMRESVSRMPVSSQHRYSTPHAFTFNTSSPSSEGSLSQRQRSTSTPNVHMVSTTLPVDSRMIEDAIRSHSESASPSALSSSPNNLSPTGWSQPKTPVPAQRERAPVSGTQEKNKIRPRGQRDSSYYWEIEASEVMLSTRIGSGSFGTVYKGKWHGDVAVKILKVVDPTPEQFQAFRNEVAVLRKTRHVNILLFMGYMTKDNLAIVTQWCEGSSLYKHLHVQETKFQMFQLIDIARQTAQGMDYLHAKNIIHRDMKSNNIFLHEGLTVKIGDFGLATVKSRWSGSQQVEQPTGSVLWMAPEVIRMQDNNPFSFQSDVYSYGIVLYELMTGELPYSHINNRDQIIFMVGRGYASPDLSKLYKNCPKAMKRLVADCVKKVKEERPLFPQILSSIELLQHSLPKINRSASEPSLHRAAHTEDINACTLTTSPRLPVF

With `COc1cc2ncnc(NCc3cccc(NC(=O)Nc4ccc(C(C)(C)C)cc4)c3)c2cc1OC` the IC50 [1] was 6.79 µM, the IC50 [2] was 5.21 µM and the “Ratio IC50” value [3] was over 5. For the same compound, the viability at 5 µM [4] was 89.4%, the Activity [5] was 4.21% and the Activity [6] was 0.44%. It also gave a viability at 10 µM [7] of 81.8%, an Activity [8] of 5.4% and a viability at 10 µM [9] of 67.5%. The Activity [10] was 2.54%, the Activity [11] was 14.2% and the Activity [12] was 6.91%. The Activity [13] was 95.33%, the Activity [14] was 1.83% and the Activity [15] was 7.83%. The Activity [16] was 22.9%, the Activity [17] was 66.29% and the Activity [18] was 0.57%. The Activity [19] was 5.65%, the Activity [20] was 85.44% and the Activity [21] was 54.3%. For the same compound, the Activity [22] was “Dose-dependent effect”, the Activity [23] was “Dose-dependent effect” and the Activity [24] was “Dose-dependent effect”. The inhibition [25] was “inactive”, the inhibition [26] was “Dose-dependent effect” and the viability at 5 µM [27] was 75.4%. For the same compound, the Activity [28] was 20.28%, the Activity [29] was 3.6% and the Activity [30] was 7.65%. The Activity [31] was 13.43%, the Activity [32] was 1.07% and the Activity [33] was “Active”. For the same compound, the Ratio [34] was 125 and the Activity [35] was “Non-toxic”.
